In patent publication US5610171A, “Inhibition of metastasis in patients having cancer with pyridyloxazole-2-ones” (Merrell Pharmaceuticals Inc., priority 1995, dated 1997):
Entries after “also recorded” stand apart in the source; their conditions may differ. Read-outs that look alike come from different tables or passages of the source.

Experiments:
cytosolic PKC = experiment: Inhibition of B16F1 cytosolic PKC activity; type: biochemical, murine; details: B16F1 cytosol fraction
Procedure: (§1) Protein Kinase C Preparation
(§2) Cytostolic and membrane-associated PKC was prepared as described in Thomas, T. P., Gopalakrishna, R. and Anderson, W. B. Hormone- and tumor promoter-induced activation of membrane association of protein kinase C in intact cells, Methodsin Enzymology, 141: 399-411, 1987. Sub-confluent B16F1 cultures (4×10^7 cells total) were washed twice with phosphate buffered saline (PBS), pH 7.2 and then twice with buffer A (20 mM Tris, pH 7.5, 2 mM EDTA, 0.5 mM EGTA, […], 2 mM phenylmethylsulfonyl fluoride (PMSF), and 2 μg/ml leupeptin). Cells were scraped from the plates in buffer A, homogenized (40 strokes) and sedimented by centrifugation for 1 hour at 100,000 g. The cytosol was stored on ice while the particulate fraction was washed with buffer B (20 mM Tris, pH 7.2, 2 mM EDTA, 0.5 mM EGTA, and 2 mM (PMSF). The membranes were resuspended with buffer B and homogenized with 10 strokes. Nonidet P-40 (1% final concentration) was added and the mixture was incubated for 30 minutes at 4° C. in a rotating mixer. Nonsolubilized material was removed by centrifugation for 10 minutes at 1400 g. Cytostolic and membrane-bound PKC was partially purified by chromatography over 1 ml columns of DE-52 (Whatman) equilibrated with buffer B. The enzyme was applied to the column and washed with 2×3 ml buffer B. Elution of PKC was then effected by the addition of 2 ml buffer B containing 100 mM NaCl.
(§3) PKC was quantitated as described in Thomas et al., ibid. The assay contained 20 mM Tris (pH 7.5), 0.75 mM CaCl, 10 mM magnesium acetate, […] histone III-S, 0.25 μg/ml leupeptin, 100 μM [gamma-^32 p]-ATP (120 cpm/pmol), 0.96 μg/ml phosphatidylserine, and 0.0064 μg/ml 1,2-diolein in a total assay volume of 250 μl. Blanks contained no calcium or phospholipids. Incubation was for 5 minutes at 30° C. at which point the reaction was terminated by the addition of 1 ml 25% trichloroacetic acid (TCA). Samples were applied to Whatman GF/B filters, the tube rinsed twice with 5% TCA and the filter then washed 5 times with 5% TCA.
^a Subconfluent B16F1 cells were harvested and cytosol and membrane
fractions prepared as described in Materials and Methods. PKC activity wa
then measured in the presence of the drugs listed.

[1] = test system: B16F1 cells / human umbilical vein endothelial cells (HUVEC); experiment: Adhesion of B16F1 melanoma cells to endothelial cells (HUVEC); type: cell-based, murine B16F1 cells; human HUVEC; details: for Adherent B16F1 Cells, Mean +/- SE / activity at 50 µM: 50 μM, 24 hours treatment; for activity at 50 µM: Mus musculus, read-out: B16F1 cells adhered expressed as percent of control
Procedure: Adhesion of Tumor Cells to Endothelial Cells
Round 15 mm Thermanox tissue culture cover slips from Lux were placed in Corning 12-well, 22 mm diameter tissue culture clusters. HUVEC (2×10^6) were added to each well and grown to confluency. Sub-confluent B16F1 cells were labeled with 1 μCi/ml [^3 H]-thymidine (New England Nuclear, 78.5 Ci/mmol) for 24 hours at 37° C.
In preparation for the adhesion assay, the tissue culture wells containing either HUVEC or no cells were blocked with MEM containing 20 mM HEPES and 1% BSA for 1 hour at 37° C. B16F1 cells were removed from the flasks as described above for adhesion to basement membrane proteins and diluted to a density of 2×10^5 viable cells/ml in MEM (viability determined by trypan blue exclusion).
Blocking solution was aspirated from the wells and 1 ml of cells were added per well and incubated at 37° C. Nonadherent cells were washed from coverslips as described in Wright, P. S., Cross-Doersen, D., McCann, P. P. and Bitonti, A. J., Plasmodium falciparum: a rapid assay for cytoadherence of [^3 H]-hypoxanthine-labeled infected erythrocytes to human melanoma cells, Exp. Parasitol., 71: 346-349, 1990. Coverslips were retrieved from the well with forceps and dipped 10 times into a beaker of 100 ml MEM. Coverslips were placed into scintillation vials and counted in 10 ml Beckman Ready Protein.
B16F1 cells were treated with 4-propyl-5(4-pyridinyl)-
(3H)-oxazolone for 24 hours at 37° C. Cells were then
harvested and added to wells containing confluent HUVEC
cells and incubated for the time indicated at 37° C. Details
are given in Materials and Methods.

laminin = experiment: Adhesion of B16F1 cells to laminin; type: cell-based; details: 24 hours
Procedure: Adhesion of B16F1 Cells to Basement Membrane Proteins
Adhesion proteins (2 μg/well) were coated onto Immulon I Removawells from Dynatech and incubated for 1 hour at 37° C. The wells were then blocked for 1 hour with 400 μl PBS, pH 7.2 containing 1% bovine serum albumin (BSA) at 37° C. Prior to addition of the cell suspension, the blocking solution was aspirated.
Sub-confluent cells were washed twice with HBSS and removed form flasks by incubation for 10 minutes at 37° C. with PBS (pH 7.2), 2 mM EDTA, and 1% BSA. The cells were washed twice with MEM containing 20 mM HEPES and 0.1% BSA and resuspended in the same medium to give a cell density of […].
Cells were added to wells in 50 μl (5×10^4 cells) and incubated at 37° C. The wells were aspirated and washed three times with 400 μl PBS (pH 7.2) containing 0.1% BSA. Wells were detached and counted in 5 ml Beckman Ready Protein. Blanks were not coated with protein but were blocked with BSA as described above.

[2] = test system: B16F1 murine melanoma cells; experiment: Viability of treated B16F1 cells by [3H]-thymidine incorporation; type: cell-based; details: 24 hours
membrane-associated PKC = experiment: PKC activity in membranes of pretreated B16F1 cells; type: cell-based, murine; details: 24 hours
Procedure: as §1, §2, §3
B16F1 cells were incubated with 4-propyl-5(4-
pyridinyl)-2(3H)-oxazolone for 24 hours at 37° C. PKC was
then prepared and its activity was measured as described in […]

IC50 (cytosolic PKC): 54 µM
Structure (SMILES): CCCc1[nH]c(=O)oc1-c1ccncc1 [Compound 1, 4-propyl-5(4-pyridinyl)-2(3H)-oxazolone]
adherence to HUVEC [1]: decreased adhesion; also recorded: less adherent
Adherent B16F1 Cells, Mean +/- SE ([1]; 5 min adhesion): 4,513 cells
Adherent B16F1 Cells, Mean +/- SE ([1]; 10 min adhesion): 7,828 cells
Adherent B16F1 Cells, Mean +/- SE ([1]; 20 min adhesion): 48,750 cells
Adherent B16F1 Cells, Mean +/- SE ([1]; 30 min adhesion): 92,084 cells
Adherent B16F1 Cells, Mean +/- SE ([1]; 60 min adhesion): 136,950 cells
activity at 50 µM ([1]; B16-F1, 5 min, 5 min adhesion): 126%
activity at 50 µM ([1]; B16-F1, 10 min, 10 min adhesion): 39%
activity at 50 µM ([1]; B16-F1, 20 min, 20 min adhesion): 60%
activity at 50 µM ([1]; B16-F1, 0.5 h, 30 min adhesion): 71%
activity at 50 µM ([1]; B16-F1, 1 h, 60 min adhesion): 110%
adherence to laminin (laminin): inhibited minimally or not at all
viability of treated cells ([3H]-thymidine incorporation) [2]: equivalent to untreated cells
PKC Activity Ratio membrane/cytosol (membrane-associated PKC; 5 μM): 0.29
PKC Activity, membrane (membrane-associated PKC; 5 μM): 2151 pmol per min per mg protein
PKC Activity Ratio membrane/cytosol (membrane-associated PKC; 25 μM): 0.61
PKC Activity, membrane (membrane-associated PKC; 25 μM): 1511 pmol per min per mg protein
PKC Activity Ratio membrane/cytosol (membrane-associated PKC; 50 μM): 0.27
PKC Activity, membrane (membrane-associated PKC; 50 μM): 1000 pmol per min per mg protein
